According to patent US20030149084A1, “Cytostatic agents” (priority 1998, published 2003):

How the values were obtained:
[1] = system: human histiocytic lymphoma cell line (U937); test: U937 cell proliferation assay (methyl-3H thymidine incorporation); format: cell-based; conditions: for activity at 6 µM: Homo sapiens, U-937, U937 cells; for activity at 6 µM / % of Control methyl-^3H Thymidine Incorporation: test compound 6 μM, 72 hours in culture, 3 hours pulse, control DMSO 0.08%, n=6
Procedure: The compounds of examples 1 to 10 were tested the following cell proliferation assay, to determine their respective capacities to inhibit proliferation.
A human histiocytic lymphoma cell line (U937) was seeded into 30 mm^2 tissue culture wells, in the appropriate culture medium supplemented with 10% fetal calf serum at a density of 250 cells/mm^2. Six hours later the test compounds were added in the same culture medium to the cells to give a final concentration of 6 μM. Control wells contained cells supplemented with the same culture medium containing the equivalent amount of drug vehicle, which in this case was DMSO at a final concentration of 0.08%. After 72 hours in culture the cells were pulsed for 3 hours with methyl-^3H Thymidine (20 μCi/ml) and then harvested onto filter mats and DNA associated radioactivity counted. Results are expressed as percentage of control methyl-^3H Thydimine incorporation (n=6±1 stdv).

Compound	activity at 6 µM [1]	further results
CCCC[C@H](CN(O)C=O)C(=O)N[C@@H](Cc1ccccc1)C(=O)OC1CCCC1 [Example 4, S-{2R-[(Formyl-hydroxy-amino)-methyl]-hexanoylamino}-3-phenyl-propionic Acid Cyclopentyl Ester]	0%	
CCC[C@@H]([C@@H](CC(C)C)C(=O)N[C@@H](COC(C)(C)C)C(=O)OC1CCCC1)N(O)C=O [Example 23, 3-tert-Butoxy-2S-[3S-(formyl-hydroxy-amino)-2R-isobutyl-hexanoylamino]-propionic Acid Cyclopentyl Ester]	5%	
O=c1[nH]cc(F)c(=O)[nH]1 [5-fluorouracil, reference compound]		activity in the U937 assay, % of that observed with the vehicle alone ([1]; U937 cells, 6 μM, comparison compound): 50%
CCCC[C@H](CN(O)C=O)C(=O)N[C@H](C(=O)OCCOC)C(C)(C)C [Example 16, 2S-{2R-[(Formyl-hydroxy-amino)-methyl]-hexanoylamino}-3,3-dimethyl Butyric Acid 2-methoxy-ethyl Ester]	89%	
CCC[C@@H]([C@@H](CC(C)C)C(=O)N[C@H](C(=O)OCC)c1ccccc1)N(O)C=O [Example 25, S-[3S-(Formyl-hydroxy-amino)-2R-isobutyl-hexanoylamino]-phenyl-acetic Acid Ethyl Ester]	3%	
CCC[C@@H]([C@@H](Cc1ccccc1)C(=O)N[C@H](C(=O)OCCOC)c1ccccc1)N(O)C=O [Example 29, S-[2R-Benzyl-3S-(formyl-hydroxy-amino)hexanoylamino]-phenyl-acetic Acid Methoxyethyl Ester]	0%	
CC(C)C[C@@H](C(=O)N[C@@H](Cc1ccccc1)C(=O)OC1CCCC1)C(C)N(O)C=O (single isomer, unassigned) [Example 2, diastereomer A]	21%	
CCCC[C@H](CN(O)C=O)C(=O)N[C@H](C(=O)OC(C)C)C(C)(C)C [Example 9, 2S-{2R-[(Formyl-hydroxy-amino)-methyl]-hexanoylamino}-3,3-dimethyl Butyric Acid Iso-Propyl Ester]	81%	
CCCC[C@H](CN(O)C=O)C(=O)N[C@H](C(=O)OC)C(C)(C)C [Example 5, 2S-{2R-[(Formyl-hydroxy-amino)-methyl]-hexanoylamino}-3,3-dimethyl Butyric Acid Methyl Ester]	86%	melting point: 63.5 to 64.5 °C
O=CN(O)CC(Cc1ccccc1)C(=O)N[C@@H](Cc1ccccc1)C(=O)OC1CCCC1 (single isomer, unassigned) [Example 1, diastereomer A, 2S-[2-benzyl-3-(formyl-hydroxy-amino)propionylamino]-3-phenyl-propionic acid cyclopentyl ester]		% of Control methyl-^3H Thymidine Incorporation ([1]; U937 cells, 6 µM): 0%
CCCC[C@H](CN(O)C=O)C(=O)N[C@H](C(=O)OC)c1ccccc1 [Example 20, S-{2R-[(Formyl-hydroxy-amino)-methyl]-hexanoylamino}-2-phenyl Acetic Acid Methyl Ester]	53%	
CCC[C@@H]([C@@H](Cc1ccccc1)C(=O)N[C@H](C(=O)OC1CCCC1)c1ccccc1)N(O)C=O [Example 28, S-[2R-Benzyl-3S-(formyl-hydroxy-amino)hexanoylamino]-phenyl-acetic Acid Cyclopentyl Ester]	0%	
CC(C)C[C@@H](C(=O)N[C@@H](Cc1ccccc1)C(=O)OC1CCCC1)C(C)N(O)C=O (single isomer, unassigned) [Example 2, diastereomer B]		% of Control methyl-^3H Thymidine Incorporation ([1]; U937 cells, 6 µM): 17%
CCCC[C@H](CN(O)C=O)C(=O)N[C@@H](Cc1ccccc1)C(=O)OCC [Example 8, 2S-{2R-[(Formyl-hydroxy-amino)-methyl]-hexanoylamino)-3-phenyl-propionic Acid Ethyl Ester]	0%	
CCCC[C@H](CN(O)C=O)C(=O)N[C@H](C(=O)OC1CCC1)C(C)(C)C [Example 14, 2S-{2R-[(Formyl-hydroxy-amino)-methyl]-hexanoylamino}-3,3-dimethyl Butyric Acid Cyclobutyl Ester]	74%	
CCCC[C@H](CN(O)C=O)C(=O)N[C@H](C(=O)OC(C)(C)C)c1ccccc1 [Example 21, S-{2R-[(Formyl-hydroxy-amino)-methyl]-hexanoylamino}-2-phenyl Acetic Acid Tert-Butyl Ester]	90%	
CCCC[C@H](CN(O)C=O)C(=O)N[C@H](C(=O)OC(C)C)c1ccccc1 [Example 11, S-{2R-[(Formyl-hydroxy-amino)-methyl]-hexanoylamino}-2-phenyl Acetic Acid Iso-Propyl Ester]	36%	melting point: 142 to 145 °C

Compound	activity at 6 µM [1]	further results
CCCC[C@H](CN(O)C=O)C(=O)N[C@@H](Cc1ccccc1)C(=O)OC [Example 7]	0%	
CCC[C@@H]([C@@H](CC(C)C)C(=O)N[C@H](C(=O)OCC1CCCC1)c1ccccc1)N(O)C=O [Example 32, S-[3S-(Formyl-hydroxy-amino)-2R-isobutyl-hexanoylamino]-phenyl-acetic Acid Cyclopentylmethyl Ester]	8%	
CCCC[C@H](CN(O)C=O)C(=O)N[C@H](C(=O)OC1CCCCC1)C(C)(C)C [Example 15, 2S-{2R-[(Formyl-hydroxy-amino)-methyl]-hexanoylamino}-3,3-dimethyl Butyric Acid Cyclohexyl Ester]	75%	
CCCC[C@H](CN(O)C=O)C(=O)N[C@H](C(=O)OC1CCCC1)c1ccccc1 [Example 13, S-{2R-[(Formyl-hydroxy-amino)-methyl]-hexanoylamino}-2-phenyl Acetic Acid Cyclo-Pentyl Ester]		melting point: 119 to 120 °C
CCCC[C@H](CN(O)C=O)C(=O)N[C@H](C(=O)OCC)C(C)(C)C [Example 12, 2S-{2R-[(Formyl-hydroxy-amino)-methyl]-hexanoylamino}-3,3-dimethyl Butyric Acid Ethyl Ester]	77%	melting point: 85 to 87 °C
CCCC[C@H](CN(O)C=O)C(=O)N[C@H](C(=O)OCC)c1ccccc1 [Example 10, 2S-{2R-[(Formyl-hydroxy-amino)-methyl]-hexanoylamino}-2-phenyl Acetic Acid Ethyl Ester]	7%	melting point: 134 to 136 °C
CCC[C@@H]([C@@H](CC(C)C)C(=O)N[C@H](C(=O)OCCOC)c1ccccc1)N(O)C=O [Example 26, S-[3S-(Formyl-hydroxy-amino)-2R-isobutyl-hexanoylamino]-phenyl-acetic Acid Methoxyethyl Ester]	10%	
CCC[C@@H]([C@@H](CC(C)C)C(=O)N[C@H](C(=O)OC1CCCC1)c1ccccc1)N(O)C=O [Example 33, S-[3S-(Formyl-hydroxy-amino)-2R-isobutyl-hexanoylamino]-phenyl-acetic Acid Cyclopentyl Ester]	0%	
O=CN(O)CC(Cc1ccccc1)C(=O)N[C@@H](Cc1ccccc1)C(=O)OC1CCCC1 (single isomer, unassigned) [Example 1, diastereomer B, 2S-[2-benzyl-3-(formyl-hydroxy-amino)propionylamino]-3-phenyl-propionic acid cyclopentyl ester]		% of Control methyl-^3H Thymidine Incorporation ([1]; U937 cells, 6 µM): 73%
CCCC[C@H](CN(O)C=O)C(=O)N[C@H](C(=O)OC1CCCC1)C(C)C [Example 6, 2S-{2R-[(Formyl-hydroxy-amino)-methyl]-hexanoylamino}-3-methyl Butyric Acid Cyclo-Pentyl Ester]		% of Control methyl-^3H Thymidine Incorporation ([1]; U937 cells): 0%
CCCC[C@H](CN(O)C=O)C(=O)N[C@@H](Cc1ccccc1)C(=O)OC(C)(C)C [Example 22, 2S-{2R-[(Formyl-hydroxy-amino)-methyl]-hexanoylamino}-3-phenyl-propionic Acid Tert-Butyl Ester]	53%	melting point: 95 to 98 °C
CCCC[C@H](CN(O)C=O)C(=O)N[C@@H](Cc1ccccc1)C(=O)OC(C)C [Example 19, 2S-{2R-[(Formyl-hydroxy-amino)methyl]-hexanoylamino}-3-phenyl-propionic Acid Iso-Propyl Ester]	0%	
CCC[C@@H]([C@@H](Cc1ccccc1)C(=O)N[C@@H](COC(C)(C)C)C(=O)OC1CCCC1)N(O)C=O [Example 24, 2S-[2R-Benzyl-3S-(formyl-hydroxy-amino)-hexanoylamino]-3-tert-butoxypropionic Acid Cyclopentyl Ester]	0%	
CCCC[C@H](CN(O)C=O)C(=O)N[C@H](C(=O)OC1CCCC1)C(C)(C)C [Example 3, 2S-{2R-[(Formyl-hydroxy-amino)-methyl]-hexanoylamino}-3,3-dimethyl Butyric Acid Cyclopentyl Ester]	80%	
CCC[C@@H]([C@@H](Cc1ccccc1)C(=O)N[C@@H](Cc1ccccc1)C(=O)OC1CCCC1)N(O)C=O [Example 27, 2S-[2R-Benzyl-3S-(formyl-hydroxy-amino)hexanoylamino]-3-phenyl-propionic Acid Cyclopentyl Ester]	0%	
CCCC[C@H](CN(O)C=O)C(=O)N[C@H](C(=O)OCC1CCCC1)C(C)(C)C [Example 18, 2S-{2R-[(Formyl-hydroxy-amino)-methyl]-hexanoylamino}-3,3-dimethyl Butyric Acid Cyclopentylmethyl Ester]	60%	
